Measured values published in patent US20240382600A1, “BIFUNCTIONAL DEGRADERS COMPRISING A TEAD BINDER” (Novartis AG, priority 2021, published 2024).

Key:
[1] = tested on: YAP-dependent transcription in SF268-MCAT_Luc_dox-i-shYAPLevy (Clone 13) cells; experiment: YAP reporter gene activity assay (MCAT-Luc), SF268; format: cell-based; details: Homo sapiens, SF-268; SF268 MCAT_Luc, 24 hrs
[2] = tested on: SF268-MCAT_Luc_dox-i-shYAPLevy (Clone 13) cells; experiment: Proliferation assay (resazurin/AlamarBlue), SF268; format: cell-based; details: Homo sapiens, SF-268; SF268, 72 hours
Excerpt: (§1) NCI-H2052 mesothelioma cells (RRID: CVCL_1518) bearing Hippo-pathway inactivating mutations upstream of YAP (homozygous deletion of LATS2 and mutation of NF2) were obtained from ATCC (American Type Culture Collection), while SF268 glioma cells (RRID: CVCL_1689) overexpressing YAP due to genomic amplification were obtained from the NCI (National Cancer Institute). MKN-45 gastric adenocarcinoma cells (RRID: CVCL_0434) genomically deleted for YAP were obtained from the JCRB (Japanese Collection of Research Bioresources) Cell Bank.
(§2) Stock solutions of compounds were prepared at a concentration of 10 mM in DMSO and stored at 4° C. Where necessary to afford a full dose-response curve, the stock solutions were pre-diluted in DMSO to 1′000-fold the desired reduced start concentration. On the day after cell seeding, eleven 2-fold serial dilutions of each compound were dispensed directly into the cell assay plates using a HP 300D non-contact Digital Dispenser (TECAN). The final concentration of DMSO was normalized to 0.1% in all wells.
(§3) After incubation for 72 hours at 37° C., compound-mediated modulation of cell viability was quantified as follows. […] To enable differentiation of cytotoxic from cytostatic compound effects, the number of viable cells on the day of compound addition (day 0) was assessed in a separate cell plate and used to assess the extent of cell viability suppression as described in the following section.
(§4) For data analysis, the assay background value determined in wells containing medium, but no cells, was subtracted from all data points.
(§5) The extent of growth inhibition and potential cell kill was assessed by comparing the resorufin levels in compound-treated cells with those present at the time of compound addition. To this end, the following conditional concept was programmatically applied in HELIOS to calculate % growth (% G) for each compound-treated well: % G=(T−V0)/V0))*100 when T<V0, and % G=(T−V0)/(V−V0)))*100 when T≥V0, where V0 is the viability level at time of compound addition, while V and T represent vehicle-control and compound-treated viability levels, respectively, at the end of the compound incubation. 100%, 0% and −100% signify absence of growth inhibition, growth stasis, and complete cell kill, respectively. Compound concentrations leading to half-maximal growth inhibition (GI50) and residual cell viability at the highest tested compound concentration (Data(cmax), expressed in percent) were routinely calculated.

[3] = biological target: TEAD1-GFP in HEK293A cells (Homo sapiens (Human), UniProt P28347); experiment: TEAD1 protein abundance flow cytometry assay in HEK293A; format: cell-based; details: HEK293A TEAD1-GFP-CHYSEL-mCherry sensor cells, 24 h, GFP signal by flow cytometry
Method: Degradation of TEAD1 was measured in HEK293A cells (Invitrogen R70507) expressing TEAD1-GFP and mCherry from a stably integrated bicistronic TEAD1-GFP-CHYSEL-mCherry construct. Reduction of the GFP signal measured by flow cytometry served as readout for TEAD1 degradation after degrader treatment.
Stable HEK293A sensor cells were maintained in complete growth medium (DMEM high Glucose+10% FCS+1% L-Glutamine+1% NEAA+1% NaPyr.+4 μg/mL blasticidin) with passaging performed twice per week. On Day 0, stable HEK293A sensor cells were seeded at 5,000 cells/well in a 96-well microtiter plate in 100 μL complete medium. On Day 1, cells were treated in duplicate with 10-point 1:3 dilution series of compound using the HP D300 Digital Dispenser (Tecan). DMSO concentrations were normalized across the plate to 0.1%. On Day 2, after 24 h of incubation at 37° C., treatment media was discarded, cells rinsed with 100 μL/well PBS and then detached using 40 μL trypsin/well for 5 min. Trypsin was neutralized with 100 μL/well PBS+20% FCS).
Flow cytometry was performed on the samples using the CytoFlex S (Beckman Coulter). Cell identification was then performed using forward (FSC) vs. side scatter (SSC) plots. Single cell discrimination was performed using SSC-Width (SSC-W) vs. SSC-Height (SSCH) plots. Median GFP values for 2,500 single cells were used to determine TEAD1 levels. Median GFP values from HEK293A were used as a background signal and thus defining 0% TEAD1 signal. Median GFP values from DMSO treated HEK293A TEAD1-GFP CHYSEL-mCherry were used to define 100%
TEAD1 signal for subsequent DC50 curves (concentration at 50% TAED1 degradation). GFP and RFP were read in the channels called FITC and PE, respectively. Concentration response curves plotting relative reduction of the GFP signal (measured by flow cytometry) versus 10 compound concentrations (starting concentration 10 μM, 3 fold dilution steps) of the compounds allowed generation of DC50 values.

[4] = tested on: YAP-dependent transcription in NCI-H2052 Tet-On shYAP_2371 pLenti6 MCAT_Luc cells; experiment: YAP reporter gene activity assay (MCAT-Luc), NCI-H2052; format: cell-based; details: Homo sapiens, 24 hrs
[5] = biological target: Avi-humanTEAD4^217-434 / Cy5 labeled humanYAP^60-100 (Homo sapiens (Human), UniProt Q15561); experiment: In-vitro biochemical TR-FRET assay (TEAD4/YAP); format: binding; details: 1 h at room temperature
Method: N-terminus Cy5 labeled humanYAP^60-100 (20 nM) was then added to this preparation. Compounds were dissolved at 10 mM in 100% DMSO and serial dilutions were made in 100% DMSO. The diluted compound solutions were incubated in white 384-well plates (Greiner Bio-One) for 1 h at room temperature with the above described mix. The final DMSO concentration present in the assay was 1%. […] The IC50 values were estimated by fitting the data by nonlinear fit regression (GraphPad Prism).

[6] = tested on: MKN-45/Ubc-luc cells; experiment: Proliferation assay (resazurin/AlamarBlue), MKN-45; format: cell-based; details: Homo sapiens; MKN-45, 72 hours
Excerpt: as §1
As a specificity control, MKN-45 cells were stably transduced with a Ubc-Luc reporter construct, in which constitutive expression of firefly luciferase is driven by the promoter of the ubiquitin C housekeeping gene.
as §2, §3, §4, §5

[7] = tested on: NCI-H2052 Tet-On shYAP_2371 pLenti6 MCAT_Luc cells; experiment: Proliferation assay (resazurin/AlamarBlue), NCI-H2052; format: cell-based; details: Homo sapiens; NCI-H2052, 72 hours
Excerpt: as §1, §2, §3, §4, §5

[8] = tested on: MKN-45/Ubc-luc cells (unspecific inhibition of luciferase expression or activity); experiment: Reporter gene assay specificity control (Ubc-Luc), MKN-45; format: cell-based; details: Homo sapiens; MKN-45/Ubc-luc specificity control, 24 hrs
Excerpt: as §1
As a specificity control, MKN-45 cells were stably transduced with a Ubc-Luc reporter construct, in which constitutive expression of firefly luciferase is driven by the promoter of the ubiquitin C housekeeping gene. The resulting cell line, MKN-45/Ubc-luc, was selected and maintained in growth medium (RPMI 1640 (Amimed Cat #1-41F01-I), 2 mM L-Glutamine (Amimed Cat #5-10K50-H), 10% fetal calf serum (Amimed Cat #2-01F30-I Lot K08815P), 1% MEM Non-essential amino acids (Amimed Cat #5-13K00-H), 1× Penicillin/Streptomycin (Amimed Cat #4-01F00-H)) containing 1 μg/ml blasticidin (Gibco Cat #A11139-03).
as §2
The ability of compounds to inhibit YAP-dependent transcription was assessed in NCI-H2052 Tet-On shYAP_2371 pLenti6 MCAT_Luc and SF268-MCAT_Luc, dox-i-shYAPLevy (Clone 13) cells, while specificity (lack of unspecific inhibition of luciferase expression or activity) was assessed in MKN-45/Ubc-luc cells. The individual cell lines were seeded at 2′500 cells/20 μl/well into white-wall, clear-bottom 384-well plates (Greiner, Cat #781098) and incubated over night at 37° C. prior to addition of serial compound dilutions as described above. Following incubation for 24 hrs at 37° C., compound-mediated modulation of reporter-gene activity was quantified 5 min after addition 20 μL […] BrightGlo (Promega Cat #E2620), by measuring luminescence intensity on a multi-mode plate-reader (TECAN) with an integration time of 100 ms.
as §4

TEAD1-GFP in HEK293A cells, sequence (P28347 whole entry): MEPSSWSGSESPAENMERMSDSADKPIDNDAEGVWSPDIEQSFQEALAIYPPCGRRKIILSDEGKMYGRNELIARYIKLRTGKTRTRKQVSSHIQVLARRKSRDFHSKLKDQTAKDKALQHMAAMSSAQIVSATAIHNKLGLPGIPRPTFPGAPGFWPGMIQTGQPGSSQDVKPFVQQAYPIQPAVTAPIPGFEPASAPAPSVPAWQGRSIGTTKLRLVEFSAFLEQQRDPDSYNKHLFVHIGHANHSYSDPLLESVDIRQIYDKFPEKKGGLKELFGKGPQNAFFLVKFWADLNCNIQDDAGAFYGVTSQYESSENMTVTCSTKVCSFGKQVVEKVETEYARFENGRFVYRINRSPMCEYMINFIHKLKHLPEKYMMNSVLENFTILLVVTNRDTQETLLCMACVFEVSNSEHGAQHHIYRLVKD
Avi-humanTEAD4^217-434 / Cy5 labeled humanYAP^60-100, sequence (Q15561 217-434): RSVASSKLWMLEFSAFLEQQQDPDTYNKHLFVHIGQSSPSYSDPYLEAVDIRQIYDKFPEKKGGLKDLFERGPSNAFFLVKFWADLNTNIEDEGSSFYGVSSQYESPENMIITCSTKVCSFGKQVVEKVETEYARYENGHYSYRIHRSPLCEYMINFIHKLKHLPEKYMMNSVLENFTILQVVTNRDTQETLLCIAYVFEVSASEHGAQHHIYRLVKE

IC50 [1]	DC50 [3]	IC50 [4]	IC50 [5]	GI50 [6]	GI50 [7]	IC50 [8]	Structure (SMILES)	GI50 [2]
0.2 nM	< 0.3 nM	1 nM	3.4 nM	> 2000 nM	3.5 nM	> 2000 nM	COc1ccc(C(N)=O)c(-c2c(Cl)c(F)cc3c2[C@H](C)[C@@](CN[C@H]2CC[C@H](C(=O)N4CCC(CC5CCN(C(=O)c6ccc(Cl)c(N7CCC(=O)NC7=O)c6)CC5)CC4)CC2)(c2ccccc2)O3)c1F (atropisomer, axis not shown) [Example 24, 2-((2S,3S,4S)-5-chloro-2-((((1r,4S)-4-(4-((1-(4-chloro-3-(2,4-dioxotetrahydropyrimidin-1(2H)-yl)benzoyl)piperidin-4-yl)methyl)piperidine-1-carbonyl)cyclohexyl)amino)methyl)-6-fluoro-3-methyl-2-phenyl-2,3-dihydrobenzofuran-4-yl)-3-fluoro-4-methoxybenzamide]	6.2 nM
3.5 nM	112 nM	350 nM	1.2 nM	> 2000 nM	1190 nM	> 2000 nM	COc1ccc(C(=O)N2CCN(CC3CN(C(=O)[C@H]4CC[C@H](NC[C@]5(c6ccccc6)Oc6cc(F)c(Cl)c(-c7c(C(N)=O)ccc(OC)c7F)c6[C@@H]5C)CC4)C3)CC2)cc1N1CCC(=O)NC1=O (atropisomer, axis not shown) [Example 9, 2-((2S,3S,4S)-5-chloro-2-((((1r,4S)-4-(3-((4-(3-(2,4-dioxotetrahydropyrimidin-1(2H)-yl)-4-methoxybenzoyl)piperazin-1-yl)methyl)azetidine-1-carbonyl)cyclohexyl)amino)methyl)-6-fluoro-3-methyl-2-phenyl-2,3-dihydrobenzofuran-4-yl)-3-fluoro-4-methoxybenzamide]	120 nM
0.49 nM	0.5 nM	4.5 nM	1.8 nM	> 2000 nM	13 nM	> 2000 nM	COc1ccc(C(N)=O)c(-c2c(Cl)c(F)cc3c2[C@H](C)[C@@](CN[C@H]2CC[C@H](C(=O)N4CCC(OC5CCN(C(=O)c6ccc(Cl)c(N7CCC(=O)NC7=O)c6)CC5)CC4)CC2)(c2ccccc2)O3)c1F (atropisomer, axis not shown) [Example 13, 2-((2S,3S,4S)-5-chloro-2-((((1r,4S)-4-(4-((1-(4-chloro-3-(2,4-dioxotetrahydropyrimidin-1(2H)-yl)benzoyl)piperidin-4-yl)oxy)piperidine-1-carbonyl)cyclohexyl)amino)methyl)-6-fluoro-3-methyl-2-phenyl-2,3-dihydrobenzofuran-4-yl)-3-fluoro-4-methoxybenzamide]	23 nM
0.4 nM	3 nM	29 nM	< 1 nM	> 20000 nM	77 nM	> 20000 nM	COc1ccc(C(=O)N2CCC(CC3CCN(CCNC(=O)[C@H]4CC[C@H](NC[C@]5(c6ccccc6)Oc6cc(F)c(Cl)c(-c7c(C(N)=O)ccc(OC)c7F)c6[C@@H]5C)CC4)CC3)CC2)cc1N1CCC(=O)NC1=O (atropisomer, axis not shown) [Example 7, 2-((2S,3S,4S)-5-chloro-2-((((1r,4S)-4-((2-(4-((1-(3-(2,4-dioxotetrahydropyrimidin-1(2H)-yl)-4-methoxybenzoyl)piperidin-4-yl)methyl)piperidin-1-yl)ethyl)carbamoyl)cyclohexyl)amino)methyl)-6-fluoro-3-methyl-2-phenyl-2,3-dihydrobenzofuran-4-yl)-3-fluoro-4-methoxybenzamide]	26 nM
9.3 nM		24 nM	92 nM	8760 nM	160 nM	8760 nM	COc1ccc(C(=O)NCCCCCc2cccc3c2CN(C2CCC(=O)NC2=O)C3=O)c(-c2c(Cl)c(F)cc3c2C[C@@](CN)(c2ccccc2)O3)c1F (stereo partly drawn) [Example 36, 2-((2S,4S)-2-(aminomethyl)-5-chloro-6-fluoro-2-phenyl-2,3-dihydrobenzofuran-4-yl)-N-(5-(2-(2,6-dioxopiperidin-3-yl)-1-oxoisoindolin-4-yl)pentyl)-3-fluoro-4-methoxybenzamide]	8420 nM
